Reference: patent publication US11110080B2, “Small molecule inhibitors of bacterial efflux pumps and methods of using same” (The Regents of the University of Colorado, a body Corporate, priority 2017, dated 2021)
Values joined by “and” are separate entries in the source; they are usually repeats but may differ in a detail not shown here. Identical values can stand only once.

Columns and labels:
wild-type S.Tm = experiment: Growth in broth with antimicrobial peptides (polymyxin B, LL-37) and EPMs; type: cell-based, Salmonella enterica serovar Typhimurium; conditions: polymyxin B 5 μg/ml (⅛ MIC) + 25 μM EPM
Description: Next, it was investigated how EPMs might lead to bacterial clearance within host cells. […] Instead, EPMs may synergize with a host antimicrobial(s) that is effluxed by EPs. Two S.Tm EPs are necessary for infection of macrophages and mice (FIG. 10). The first EP, MacAB, is important for defense against ROS. The second S.Tm EP, AcrAB, is a homolog of MtrCDE, an EP in Neisseria gonorrhoeae which exports host antimicrobial peptides (AMPs). AcrAB thus likely exports AMPs as well as a variety of other substrates including antibiotics, dyes, and detergents. To test whether the EPMs synergize with macrophage defenses, wild-type bacteria was exposed in broth to ROS or AMPs in the presence of EPMs. […] Next, the two AMPs were tested: polymyxin B is a model peptide produced by bacteria; LL-37 is a human cathelicidin produced by macrophages.
Overnight Salmonella cultures were washed 3 times in PBS and diluted to an OD of 0.01 in Mueller Hinton Broth in 96-well flat bottom plates. Compound was added using a pin tool (CyBio) or manually, yielding a final concentration of no more than 1% DMSO. Plates were grown at 37° C. shaking and OD600 was monitored using a BioTek Eon incubator shaker microplate absorbance reader. For experiments in defined media, bacteria were grown in M9 minimal media supplemented with 100 mM Tris pH 7.4, 0.35% glycerol, 0.002% histidine, 10 mM MgCl2, and 0.1% casamino acids. […]

[1] = tested on: S.Tm infection of C57BL/6 mice; experiment: Mouse infection with S.Tm, tetracycline and EPM35 treatment
Experimental: Finally, whether EPM35 increased sensitivity of 510801 and wild-type S.Tm to tetracycline in vivo was tested. 7-week-old C57BL/6 mice were intraperitoneally infected with 1×10^4 bacteria. At 30 minutes and 24 hours post-infection, 25 mg/kg tetracycline and 50 mg/kg EPM35 was injected. […] Thus, the experiment was ended at 30 hours post-infection; the spleen and liver were harvested and plated to determine bacterial CFU.
These studies were carried out in strict accordance with the recommendations in the Guide for the Care and Use of Laboratory Animals of the National Institutes of Health, and all protocols were approved by the University of Colorado Institutional Committees for Biosafety and for Animal Care and Use. Bacteria were grown overnight in LB, then diluted in PBS. Seven week old C57/B16 female mice were intraperitoneally injected with 1×10^4S.Tm in 100 μL. Thirty minutes later, mice received two intraperitoneal injections: 25 mg/kg tetracycline in 150 μL PBS or PBS alone, and 50 mg/kg EPM35 in 100 μL DMSO or DMSO alone. Drug injections were repeated at 24 hours post-infection. At 30 hours post-infection, mice were humanely euthanized using carbon dioxide asphyxiation followed by cervical dislocation. Spleens and livers were harvested, homogenized, diluted in PBS, and plated to enumerate S.Tm CFUs.

[2] = tested on: extracellular S.Tm grown in MHB broth; experiment: Broth activity assay (growth / MIC in Mueller Hinton Broth); type: cell-based, Salmonella enterica serovar Typhimurium; conditions: Salmonella enterica, three Salmonella strains SL1344, MAR1, S10801
Experimental: Overnight Salmonella cultures were washed 3 times in PBS and diluted to an OD of 0.01 in Mueller Hinton Broth in 96-well flat bottom plates. Compound was added using a pin tool (CyBio) or manually, yielding a final concentration of no more than 1% DMSO. Plates were grown at 37° C. shaking and OD600 was monitored using a BioTek Eon incubator shaker microplate absorbance reader. For experiments in defined media, bacteria were grown in M9 minimal media supplemented with 100 mM Tris pH 7.4, 0.35% glycerol, 0.002% histidine, 10 mM MgCl2, and 0.1% casamino acids. Where indicated, media was supplemented with 5 μg/ml polymyxin B or 0.2 mM H2O2. For experiments with LL-37, bacteria were grown in M9 minimal media supplemented with 0.4% dextrose, 0.004% histidine, 1 mM MgSO4, and 5 μg/ml LL-37. For checkerboard assays, MIC was defined as the concentration at which no growth was visually observed.

Enterobacter cloacae = experiment: Nile Red export in MDR clinical isolate; type: cell-based; conditions: after glucose addition
Description: Six pathogens that cause the bulk of MDR nosocomial infections have been dubbed the ESKAPE pathogens: Enterococcus faecium, Staphylococcus aureus, Klebsiella pneumoniae, Acinetobacter baumannii, Pseudomonas aeruginosa, and Enterobacter species (56).
Referring to FIGS. 22A-22D: Defined strains obtained from BEI resources were examined for Nile Red retention after glucose addition in the presence of the indicated compound. *p<0.05; **p<0.01; ***p<0.001; ****p<0.0001 as determined by comparison to DMSO+glucose with a one-way ANOVA and Dunnett's multiple comparison post-test.
Nile Red assays were adapted from an established protocol. Briefly, overnight Salmonella cultures were grown in Mueller-Hinton cation-adjusted broth (Sigma), washed, and resuspended at an OD600 of 2.0. Cells were incubated in 10 μM Nile Red for 3 hours at 37° C. with aeration, then moved to room temperature for 1 hour. After pelleting at 2000× g, dye-loaded cells were aliquoted and combined with compound at the indicated concentrations. Two hundred microliters was loaded into 96-well black walled plates (Greiner) and read using a Varioskan Flash Multimode Reader with 540 nm excitation and 625 nm emission filters. We observed that during loading into plates (˜20 minutes), bacteria were able to efflux Nile Red even in the absence of glucose (FIG. 8A). […]

[3] = Log D, solubility and predicted bioavailability; type: physicochemical; conditions: aqueous
HepG2 human liver cells = experiment: LDH cytotoxicity assay; type: cell-based; conditions: 16 hours
Experimental: Cytoxocity was determined using the Pierce Lactate Dehydrogenase (LDH) Cytoxicity Assay. HepG2 liver cells were plated at 5×10^4 in 96 well tissue culture plates and allowed to settle overnight. Cells were treated with a 2-fold dilutions of each compound for 16 hours. Fifty microliters of conditioned media was mixed with the LDH assay reagent, incubated for 30 minutes, and absorbance was read at 490 and 680 nm. Curve fitting to determine CC50s was performed using GraphPad Prism; the CC50 is defined as 50% of the maximum LDH release as determined by lysed macrophages. There was no spontaneous LDH release or LDH present in the media.

Row | Compound | growth on co-treatment with polymyxin B (wild-type S.Tm) | signs in treated mice ([1]; 50 mg/kg intraperitoneal at 30 minutes and 24 hours post-infection) | bacterial CFU in spleen and liver, co-treatment with tetracycline ([1]; S10801-infected mice, 25 mg/kg tetracycline + 50 mg/kg EPM35) | enhanced decrease of CFU on co-treatment with tetracycline ([1]; mice infected with wild-type bacteria, 25 mg/kg tetracycline + 50 mg/kg EPM35) | MIC [2] | Nile Red export (Enterobacter cloacae) | solubility [3] | toxicity in HepG2 LDH assays (HepG2 human liver cells)
1 | OC(COc1ccc(Cl)c(Cl)c1)CN1CCC(Nc2nccc(C(F)(F)F)n2)CC1 (centres unmarked) [EPM35] | completely inhibited growth | Distress was observed | appeared to further reduce bacterial CFU | not observed | 400 µM and 186 µg/mL | significantly reduced Nile Red export | – | –
2 | Cc1ccc(Sc2cccc3nc(N)nc(N)c23)cc1 [EPM43] | completely inhibited growth | – | – | – | > 400 µM and 113 µg/mL | significantly reduced Nile Red export | poor aqueous solubility | less toxic to HepG2 cells than the other EPMs
